From PMC8351955, “Targeting Mycobacterium tuberculosis response to environmental cues for the development of effective antitubercular drugs” (PLoS Biology, 2021)
Like-named read-outs stand apart in the source and are kept apart here.

Experiments:
[1] = tested on: CDC1551(rv2390c′::GFP) reporter Mtb strain, response to high [Cl−]; test: microbe, parasite or virus in culture; type: cell-based, Mycobacterium tuberculosis; details: Mycobacterium tuberculosis, 144 h; for activity at 20 µM: read-out: rv2390c'::GFP validation assay NPA% at 20 µM compound
[2] = tested on: CDC1551(rv1405c′::GFP) reporter Mtb strain; test: microbe, parasite or virus in culture; type: cell-based, Mycobacterium tuberculosis; details: Mycobacterium tuberculosis; for activity at 10 µM: read-out: rv1405c'::GFP secondary assay NPA% at 10 µM compound; for activity at 20 µM: read-out: rv1405c'::GFP secondary assay NPA% at 20 µM compound
[3] = pH 6.4, […], DMSO positive control = 100%, read-out: Primary screen rv2390c'::GFP NPA%
[4] = 10 µM, pH 6.4, 250 mM NaCl, 6 days, read-out: rv2390c'::GFP validation assay NPA% at 10 µM compound

SMILES | activity at 10 µM [1, 3] | activity at 10 µM [1, 4] | activity at 20 µM ([1]; pH 6.4, 250 mM NaCl, 6 days) | activity at 10 µM [2] | activity at 20 µM [2]
CCOC(=O)Cc1cc(=O)n2nc(C(F)(F)F)c(-c3ccccc3)c2[nH]1 [RU-0171667, CCOC(=O)CC1=CC(=O)N2N=C(C(=C2N1)C1=CC=CC=C1)C(F)(F)F] | 163% | 148 ± 28.3% | 178 ± 17.6% | 84.5 ± 11.2% | 94.8 ± 4%
CC(SCc1cc(=O)n2nc(N)[nH]c2n1)c1ccccc1Cl (stereo not shown) [RU-0182827, CC(SCC1=CC(=O)N2N=C(N)NC2=N1)C1=C(Cl)C=CC=C1] | 11.2% | 13.3 ± 4.2% | 20 ± 4.4% | 6.6 ± 1.1% | 9.7 ± 3.1%
Cc1cc(C(C)C(=O)Nc2ccc(N3CCN(C)CC3)cn2)c(C)o1 (stereo not shown) [RU-0182922, CC(C(=O)NC1=NC=C(C=C1)N1CCN(C)CC1)C1=C(C)OC(C)=C1] | 174% | 139 ± 18.3% | 164 ± 13.6% | 96.9 ± 6.7% | 106 ± 5.2%
CC(CNC(=O)Nc1cccc(-c2noc(=O)[nH]2)c1)c1ccccc1 (stereo not shown) [RU-0182956, CC(CNC(=O)NC1=CC(=CC=C1)C1=NOC(=O)N1)C1=CC=CC=C1] | 48.1% | 66.7 ± 2.4% | 39 ± 3.5% | 38.3 ± 1.6% | 9.7 ± 1.2%
CSc1nc2nc3c(cc2c(=O)[nH]1)C(O)Oc1ccc(C)cc1-3 (stereo not shown) [RU-0183239, CSC1=NC2=C(C=C3C(O)OC4=C(C=C(C)C=C4)C3=N2)C(=O)N1] | 49.5% | 49.2 ± 4.2% | 33.7 ± 1.8% | 53.9 ± 4.3% | 12.9 ± 5.2%
O=C(NC[C@H]1C[C@H]2C=C[C@H]1C21CC1)c1cnc(N2CCOCC2)nc1 [RU-0184528, O=C(NC[C@H]1C[C@H]2C=C[C@H]1C21CC1)C1=CN=C(N=C1)N1CCOCC1] | 158% | 111 ± 2.1% | 134 ± 13.6% | 104 ± 21.9% | 136 ± 11.8%
Cc1ccc(-c2nc3nc(N)n(C)c(=O)c3nc2-c2ccc(C)cc2)cc1 [RU-0192424, CN1C(N)=NC2=NC(C3=CC=C(C)C=C3)=C(N=C2C1=O)C1=CC=C(C)C=C1] | 160% | 140 ± 10.1% | 169 ± 12.3% | 97 ± 3.1% | 120 ± 9.3%
COC(=O)Oc1sc2nc3ccccc3nc2c1N [RU-0193917, COC(=O)OC1=C(N)C2=C(S1)N=C1C=CC=CC1=N2] | 158% | 166 ± 15.7% | 184 ± 27% | 111 ± 4% | 179 ± 15%
Cc1nc2nc(-c3cccs3)nn2c(O)c1C1CCS(=O)(=O)C1 (stereo not shown) [RU-0194400, CC1=NC2=NC(=NN2C(O)=C1C1CCS(=O)(=O)C1)C1=CC=CS1] | 7.1% | 9.1 ± 3.9% | 15 ± 5.3% | -2.1 ± 2.6% | 2.5 ± 7%
CCN(CC)c1ccc2c(NC3CCCCC3)nc(=O)oc2c1 [RU-0196346, CCN(CC)C1=CC2=C(C=C1)C(NC1CCCCC1)=NC(=O)O2] | 183% | 161 ± 6.2% | 192 ± 12.4% | 110 ± 13% | 115 ± 9.5%
OCC(CNc1nc(N2CCCC2)nc(N2CCCC2)n1)Cc1ccco1 (stereo not shown) [RU-0198952, OCC(CNC1=NC(=NC(=N1)N1CCCC1)N1CCCC1)CC1=CC=CO1] | 170% | 123 ± 7.8% | 194 ± 15.6% | 171 ± 12.8% | 380 ± 28.2%
Cc1csc(/C(C#N)=C\c2ccc(C3CC3C)o2)n1 (stereo not shown) [RU-0200280, CC1CC1C1=CC=C(O1)\C=C(\C#N)C1=NC(C)=CS1] | 277% | 144 ± 5.5% | 248 ± 21.2% | 399 ± 31.8% | 
COc1ccc2c(C)cc(Nc3cc(F)ccc3C)nc2c1 [RU-0202188, COC1=CC2=C(C=C1)C(C)=CC(NC1=C(C)C=CC(F)=C1)=N2] | 159% | 128 ± 12.2% | 132 ± 17.8% | 206 ± 10.4% | 256 ± 16.6%
